Data from patent publication US20030130177A1, “Use of amylin agonists to modulate triglycerides” (priority 2002, published 2003).

Tests used:
[1] = test system: patients with type-1 diabetes; assay: Standardized mixed meal test after 4 weeks pramlintide TID added to CSII (Example 1); assay type: in vivo, human
Description: This Study Assesses the Effect of the Amylin Agonist Pramlintide on Post-Prandial Plasma Glucose and Triglyceride Excursions in Patients with Type-1 Diabetes Intensively Treated with Continuous Subcutaneous Insulin Infusion (CSII).
All 23 patients in this study are ≧16 years of age, have type-I diabetes for ≧1 year and have been intensively treated (CSII, basal/bolus regimen) for at least 6 months. Patients are using either lispro (n=21) or regular (n=2) insulin, have not changed their daily insulin dose by more than ±10% for 2 months prior to the study, and have been free from severe hypo- and hyperglycemic symptoms for at least 4 weeks prior to the study. Exclusion criteria include a clinically significant history or presence of heart disease, uncontrolled hypertension (blood pressure ≧160/90 mm Hg), gastrointestinal, hepatic, renal, or central nervous system disorders, acute illness, a history of drug or alcohol abuse, or treatment with drugs known to affect gastrointestinal motility or glucose metabolism.
The study consists of 3 time periods (baseline, 4 weeks on-therapy, 2 weeks off-therapy). At the end of each time period (weeks 0, 4, 6), patients are evaluated at the clinical research center (CRC). Each evaluation includes a standardized meal test.
The first evaluation (baseline) is conducted when patients are solely treated with their usual CSII regimen. After the baseline evaluation, patients are randomized to self-administer either placebo (n=6) or pramlintide (n=17) TID with major meals, in addition to their existing CSII therapy, for 4 weeks. The placebo group is included to provide data that could be used to determine adequate power analyses when planning future studies and not for the purpose of placebo comparisons. […]
On each of the 3 CRC visits, patients undergo a standardized mixed meal test the morning after an overnight fast. […] Blood samples are processed in accordance with standard clinical practice using a reference lab and commercially available products (e.g., quantitative enzymatic in vitro assay for Triglycerides GPO-PAP, Roche Diagnostics). […]

[2] = test system: subjects with type 2 diabetes using insulin; assay: Single-dose crossover study of pramlintide injection timing relative to a standardized breakfast, type 2 diabetes using insulin (Example 2); assay type: in vivo, human; settings: type 2 patients treated with lispro insulin, pramlintide 120 μg SC, -15 to +30 min relative to meal
Description: (§1) In this example, a randomized, single-blind, placebo-controlled, five-way crossover study is designed to examine the effect of the timing of pramlintide injection relative to meal ingestion on postprandial plasma glucose profiles and triglycerides in subjects with type 1 diabetes and subjects with type 2 diabetes using insulin. Three study groups are defined by diabetes type and mealtime insulin used in their treatment regimen. On 5 study days, subjects receive a single dose of one of five treatments (A, B, C, D, or E) in random order:
(§2) Each treatment (pramlintide or placebo) is administered subcutaneously (SC) within specified times relative to a standardized breakfast after an overnight fast. Subjects are randomly assigned to one of four treatment sequences according to a randomization schedule generated for each study group.
Subjects with type 1 diabetes received pramlintide 60 μg or placebo (equivalent volume). Subjects with type 2 diabetes using insulin receive pramlintide 120 μg or placebo (equivalent volume). Subjects maintain their usual insulin regimen during the study; if necessary, insulin dose adjustments are made in consultation with study personnel to facilitate achievement of fasting fingerstick glucose values in the range of ≧80 mg/dL and ≦250 mg/dL while avoiding hypoglycemia. […]

[3] = test system: patients with type-1 diabetes; settings: mealtime s.c. injections in addition to mealtime insulin, cited from earlier work
[4] = test system: subjects with type 1 diabetes; assay: Single-dose crossover study of pramlintide injection timing relative to a standardized breakfast, type 1 diabetes (Example 2); assay type: in vivo, human; settings: pramlintide 60 μg SC, -15 to +30 min relative to meal
Description: as §1, §2
Subjects with type 1 diabetes received pramlintide 60 μg or placebo (equivalent volume). Subjects with type 2 diabetes using insulin receive pramlintide 120 μg or placebo (equivalent volume). Subjects maintain their usual insulin regimen during the study; if necessary, insulin dose adjustments are made in consultation with study personnel to facilitate achievement of fasting fingerstick glucose values in the range of ≧80 mg/dL and ≦250 mg/dL while avoiding hypoglycemia. The timing of the short-acting insulin dose relative to the standardized breakfast is based on recommendations in the respective package inserts for the insulin (0 min for insulin lispro and −30 min for regular insulin).
The study population consists of three study groups, defined by diabetes type and type of mealtime insulin used in their treatment regimen. Study Group 1: Subjects with type 1 diabetes using insulin lispro. Study Group 2: Subjects with type 1 diabetes using regular insulin. Study Group 3: Subjects with type 2 diabetes using insulin lispro. Fifty-nine subjects (21 type 1 subjects using insulin lispro; 19 type 1 subjects using regular insulin; and 19 type 2 subjects using insulin lispro) are enrolled in this study.

**Q.** For `CC[C@H](C)[C@H](NC(=O)[C@@H]1CCCN1C(=O)CNC(=O)[C@H](Cc1ccccc1)NC(=O)[C@H](CC(N)=O)NC(=O)[C@H](CC(N)=O)NC(=O)[C@H](CO)NC(=O)[C@H](CO)NC(=O)[C@H](Cc1c[nH]cn1)NC(=O)[C@@H](NC(=O)[C@H](CC(C)C)NC(=O)[C@H](Cc1ccccc1)NC(=O)[C@H](CC(N)=O)NC(=O)[C@H](C)NC(=O)[C@H](CC(C)C)NC(=O)[C@H](CCCNC(=N)N)NC(=O)[C@H](CCC(N)=O)NC(=O)[C@@H](NC(=O)[C@H](C)NC(=O)[C@@H]1CSSC[C@H](NC(=O)[C@@H](N)CCCCN)C(=O)N[C@@H](CC(N)=O)C(=O)N[C@@H]([C@@H](C)O)C(=O)N[C@@H](C)C(=O)N[C@@H]([C@@H](C)O)C(=O)N1)[C@@H](C)O)C(C)C)C(=O)N[C@@H](CC(C)C)C(=O)N1CCC[C@H]1C(=O)N1CCC[C@H]1C(=O)N[C@H](C(=O)N[C@@H](CC(N)=O)C(=O)N[C@H](C(=O)NCC(=O)N[C@@H](CO)C(=O)N[C@@H](CC(N)=O)C(=O)N[C@H](C(=O)N[C@@H](Cc1ccc(O)cc1)C(N)=O)[C@@H](C)O)C(C)C)[C@@H](C)O` [pramlintide, ^25, 28, 29Pro-h-amylin], which “post-prandial triglyceride excursions, mean incremental AUC” value ([1]; end of 4-week pramlintide treatment period, s.c. 15 min prior to meal, plus CSII, baseline period 65.7±87.6, p<0.05) is on record?
**A.** 16.7 ± 56.8 mg·min/dL

**Q.** And the “post-prandial glucose response to a mixed meal” value ([1]; pramlintide added to insulin, type-1 diabetic patients)?
**A.** reduces

**Q.** What about the “post-prandial triglyceride excursions, mean incremental AUC” value ([1]; week 6, 2 weeks after return to pre-treatment therapy (CSII only), off-therapy) of the same compound?
**A.** 56.2 ± 87.3 mg·min/dL

**Q.** And the postprandial glucose excursions [2]?
**A.** markedly improves

**Q.** And the postprandial triglyceride concentrations ([2]; FIG. 4)?
**A.** markedly improves

**Q.** What about the “rate of gastric emptying” value ([3]; Kong et al. 1998) of the same compound?
**A.** slows

**Q.** What about the mealtime glucagon secretion ([3]; Nyholm et al. 1999, Fineman et al. 2002) of the same compound?
**A.** suppresses

**Q.** And the post-prandial glucose excursions ([3]; Nyholm et al. 1999, Thompson et al. 1997)?
**A.** improves

**Q.** And the postprandial glucose excursions ([4]; type 1 patients treated with lispro insulin)?
**A.** markedly improves

**Q.** And the postprandial triglyceride concentrations ([4]; type 1 patients treated with lispro insulin, FIG. 2)?
**A.** markedly improves

**Q.** What about the postprandial glucose excursions ([4]; type 1 patients treated with regular insulin) of the same compound?
**A.** markedly improves

**Q.** And the postprandial triglyceride concentrations ([4]; type 1 patients treated with regular insulin, FIG. 3)?
**A.** markedly improves
